Data taken from article PMC9961271, “Inhibitory Effects of a Novel μ-Opioid Receptor Nonpeptide Antagonist, UD-030, on Morphine-Induced Conditioned Place Preference” (International Journal of Molecular Sciences, 2023).
Structures can show the parent of a compound that is named as a salt.

Key:
C57BL/6J mice [1] = experiment: Acquisition of morphine-induced conditioned place preference; type: in vivo, male C57BL/6J mice; conditions: for time spent in the drug-paired compartment, postconditioning / time spent in the drug-paired compartment, preconditioning: n = 8; for morphine-induced CPP score compared with the vehicle-pretreated group: Dunnett's test
Method: (§1) For the pharmacokinetic and pharmacological studies, morphine hydrochloride (Takeda Pharma, Osaka, Japan) was dissolved and diluted in saline and administered intraperitoneally (i.p.) in a volume of 10 mL/kg body weight. […] All experiments were conducted with a dose of morphine (10 mg/kg) that is sufficient to elicit CPP.
(§2) Male Crl:CD1 (ICR) mice (Japan CLEA, Tokyo, Japan) were used at 5 weeks of age for the pharmacokinetic analysis. Male C57BL/6J mice (Japan CLEA) were used at 7 weeks of age for the behavioral analyses. The mice were housed 4–6 per cage in an environment at 23 °C ± 1 °C and 50% ± 5% humidity with free access to food and water under a 12 h/12 h light/dark cycle. All experiments were performed with approval from the Institutional Animal Care and Use Committee at the Tokyo Metropolitan Institute of Medical Science.
(§3) The CPP test was performed using a two-compartment Plexiglas chamber. […] For the preconditioning and postconditioning phases, a T-style division with double 60 mm × 60 mm openings allowed the mice to access both compartments. During the conditioning phases, the openings were eliminated to restrict the mice to one of the compartments. The CPP apparatus was placed in a sound-attenuated, light-controlled box. On day 1 (preconditioning: habituation) and day 2 (preconditioning: pretest), the mice freely explored the two compartments for 900 s, and the time spent in each compartment during the exploratory period and locomotor activity were measured using an infrared detector (Neuroscience, Osaka, Japan). We selected a counterbalanced protocol to nullify each mouse’s initial preference as discussed previously. […] Conditioning was conducted once daily for 4 consecutive days (days 3–6). The mice were injected with morphine (10.0 mg/kg, i.p.) or saline and immediately confined to the black or white compartment for 60 min on day 3. On day 4, the mice were alternately injected with saline or drug and immediately confined to the opposite compartment for 60 min. On days 5 and 6, the same conditioning as on days 3 and 4 was repeated. The assignment of the mice to the conditioned compartment was performed randomly and counterbalanced across subjects. During the postconditioning phase on day 7, the time spent in each compartment was measured for 900 s. The CPP score was designated as the time spent in the drug-paired compartment on day 7 minus the time spent in the same compartment in the preconditioning phase on day 2.
(§4) The data were analyzed using two-way repeated-measures ANOVA followed by Sidak’s multiple-comparison post hoc test, one-way ANOVA followed by Dunnett’s multiple-comparison post hoc test, or Student’s t-test using GraphPad Prism software. Values of p < 0.05 were considered statistically significant.

C57BL/6J mice [2] = experiment: Expression of morphine-induced conditioned place preference; type: in vivo, male C57BL/6J mice; conditions: for time spent in the morphine-paired compartment, postconditioning / time spent in the morphine-paired compartment, preconditioning: n = 8; for morphine-induced CPP score compared with the vehicle-treated control group: 10 mg/kg p.o. before the postconditioning phase, Dunnett's test, UD-030 p = 0.038, NTX p = 0.042; for sedative effects (number of transitions between compartments): 10 mg/kg p.o., postconditioning phase
Method: as §1, §2, §3, §4

human MOP [3] = biological target: T1, human MOP (Homo sapiens, UniProt P35372); experiment: [35S]-GTPγS binding assay, hMOP/CHO membranes; type: biochemical
human KOP [4] = biological target: T2, human KOP (Homo sapiens, UniProt P41145); experiment: [35S]-GTPγS binding assay, hKOP/CHO membranes; type: biochemical
[5] = Pharmacokinetics after a single oral administration (plasma, LC-MS/MS); conditions: male, Crl:CD1 (ICR), mouse; for concentration at 0.5 h / concentration at 1 h / concentration at 2 h / concentration at 4 h / concentration at 8 h / concentration at 24 h: in vivo; for AUC(0-t) / Cmax / Tmax: plasma; for Tmax: mice
human NOP [6] = biological target: T3, human NOP (Homo sapiens, UniProt P41146); experiment: [35S]-GTPγS binding assay, hNOP/CHO membranes; type: biochemical
human NOP [7] = biological target: T3, human NOP; experiment: Competitive radioligand binding assay, hNOP/CHO membranes
human MOP [8] = biological target: T1, human MOP; experiment: Competitive radioligand binding assay, hMOP/CHO membranes
human KOP [9] = biological target: T2, human KOP; experiment: Competitive radioligand binding assay, hKOP/CHO membranes
human DOP [10] = biological target: T4, human DOP (Homo sapiens, UniProt P41143); experiment: Competitive radioligand binding assay, hDOP/CHO membranes
human DOP [11] = biological target: T4, human DOP; experiment: [35S]-GTPγS binding assay, hDOP/CHO membranes; type: biochemical
[12] = 10 mg/kg p.o. 60 min before each morphine treatment (10 mg/kg, i.p.)
[13] = 10 mg/kg p.o. before each morphine treatment, UD-030 p < 0.001, NTX p = 0.003
[14] = 10 mg/kg p.o. 60 min before the postconditioning phase
[15] = 3 mg/kg p.o. 60 min before each morphine treatment (10 mg/kg, i.p.)

In the case of `O=C1CC[C@@]2(O)[C@H]3Cc4ccc(O)c5c4[C@@]2(CCN3CC2CC2)[C@H]1O5` [NTX, naltrexone, reference compound], the “time spent in the drug-paired compartment, postconditioning” value (C57BL/6J mice [1]; [12]) is reported as 436.5 ± 49.7 s, the “time spent in the drug-paired compartment, preconditioning” value (C57BL/6J mice [1]; [12]) is reported as 437.0 ± 38.1 s and the “morphine-induced CPP score compared with the vehicle-pretreated group” value (C57BL/6J mice [1]; [13]) is reported as “significantly lower”. For the same compound, the “time spent in the morphine-paired compartment, postconditioning” value (C57BL/6J mice [2]; [14]) was 474.1 ± 29.9 s, the “time spent in the morphine-paired compartment, preconditioning” value (C57BL/6J mice [2]; [14]) was 441.6 ± 33.0 s and the “morphine-induced CPP score compared with the vehicle-treated control group” value (C57BL/6J mice [2]) was “significantly decreased”. For the same compound, the “sedative effects (number of transitions between compartments)” value (C57BL/6J mice [2]) was “did not exert sedative effects”.
With `CN1CC[C@]23c4c5ccc(O)c4O[C@H]2[C@@H](O)C=C[C@H]3[C@H]1C5` [Morphine, morphine hydrochloride] the “time spent in the drug-paired compartment, preconditioning” value (C57BL/6J mice [1]; morphine 10 mg/kg i.p. conditioning, vehicle-pretreated control mice) was 443.1 ± 33.2 s, the “time spent in the drug-paired compartment, postconditioning” value (C57BL/6J mice [1]; morphine 10 mg/kg i.p. conditioning, vehicle-pretreated control mice, p < 0.001 vs pre) was 554.4 ± 31.8 s and the “time spent in the morphine-paired compartment, preconditioning” value (C57BL/6J mice [2]; morphine 10 mg/kg i.p. conditioning, vehicle-treated control mice) was 443.6 ± 34.4 s. For the same compound, the “time spent in the morphine-paired compartment, postconditioning” value (C57BL/6J mice [2]; morphine 10 mg/kg i.p. conditioning, vehicle-treated control mice, p < 0.001 vs pre) was 554.4 ± 29.7 s.
With `C[C@@H](NC(=O)[C@@H](N)Cc1ccc(O)cc1)C(=O)NCC(=O)N(C)[C@@H](Cc1ccccc1)C(=O)NCCO` [DAMGO, reference compound] the Emax (human MOP [3]; hMOP/CHO, read-out: maximal effect (agonistic activity)) was greater than 95%.
Compound `CC[C@]1(c2cc(NS(=O)(=O)C3CC3)ccc2F)[C@@H]2CN(CC3(O)Cc4ccccc4C3)C[C@@H]21` [UD-030] has an EC50 (human KOP [4]) greater than 10000 nM, an IC50 (human KOP [4]) of 85 nM and a maximal inhibitory effect (human KOP [4]; against U-69593) greater than 95%. For the same compound, the “stimulation of [35S]-GTPγS binding” value (human KOP [4]; high concentration (10 µM)) was “did not stimulate”, the concentration at 0.5 h ([5]; 0.5 mg/kg) was 1.09 ± 0.4 ng/mL and the concentration at 1 h ([5]; 0.5 mg/kg) was 2.86 ± 1.6 ng/mL. For the same compound, the concentration at 2 h ([5]; 0.5 mg/kg) was 2.96 ± 0.3 ng/mL, the concentration at 4 h ([5]; 0.5 mg/kg) was 4.61 ± 1.9 ng/mL and the concentration at 8 h ([5]; 0.5 mg/kg) was 4.95 ± 0.9 ng/mL. For the same compound, the concentration at 24 h ([5]; 0.5 mg/kg) was 0.231 ng/mL, the concentration at 0.5 h ([5]; 1 mg/kg) was 4.76 ± 1.9 ng/mL and the concentration at 1 h ([5]; 1 mg/kg) was 6.98 ± 1.7 ng/mL. It also gave a concentration at 2 h ([5]; 1 mg/kg) of 14.9 ± 0.9 ng/mL, a concentration at 4 h ([5]; 1 mg/kg) of 11.5 ± 2.9 ng/mL and a concentration at 8 h ([5]; 1 mg/kg) of 10.9 ± 2.1 ng/mL. For the same compound, the concentration at 24 h ([5]; 1 mg/kg) was 0.358 ng/mL, the concentration at 0.5 h ([5]; 2 mg/kg) was 11.8 ± 5.4 ng/mL and the concentration at 1 h ([5]; 2 mg/kg) was 25.5 ± 2.2 ng/mL. For the same compound, the concentration at 2 h ([5]; 2 mg/kg) was 36.1 ± 8.3 ng/mL, the concentration at 4 h ([5]; 2 mg/kg) was 26.7 ± 3.3 ng/mL and the concentration at 8 h ([5]; 2 mg/kg) was 18.8 ± 9.2 ng/mL. For the same compound, the concentration at 24 h ([5]; 2 mg/kg) was 0.35 ng/mL, the concentration at 0.5 h ([5]; 4 mg/kg) was 27.7 ± 24 ng/mL and the concentration at 1 h ([5]; 4 mg/kg) was 119 ± 35 ng/mL. The concentration at 2 h ([5]; 4 mg/kg) was 72.7 ± 18 ng/mL, the concentration at 4 h ([5]; 4 mg/kg) was 103 ± 15 ng/mL and the concentration at 8 h ([5]; 4 mg/kg) was 69.4 ± 10 ng/mL. The concentration at 24 h ([5]; 4 mg/kg) was 0.395 ± 0.1 ng/mL, the AUC(0-t) ([5]; 0.5 mg/kg) was 72.3 ng·h/mL and the Cmax ([5]; 0.5 mg/kg) was 4.95 ng/mL. It also gave a Tmax ([5]; 0.5 mg/kg, Tmax, 0.5 mg/kg p.o.) of 8 h, an AUC(0-t) ([5]; 1 mg/kg) of 176 ng·h/mL and a Cmax ([5]; 1 mg/kg) of 14.9 ng/mL. The Tmax ([5]; 1 mg/kg, Tmax, 1 mg/kg p.o.) was 2 h, the AUC(0-t) ([5]; 2 mg/kg) was 350 ng·h/mL and the Cmax ([5]; 2 mg/kg) was 36.1 ng/mL. For the same compound, the Tmax ([5]; 2 mg/kg, Tmax, 2 mg/kg p.o.) was 2 h, the AUC(0-t) ([5]; 4 mg/kg) was 1220 ng·h/mL and the Cmax ([5]; 4 mg/kg) was 119 ng/mL. For the same compound, the Tmax ([5]; 4 mg/kg, Tmax, 4 mg/kg p.o.) was 1 h, the Tmax ([5]; 4 mg/kg, time to reach the maximum plasma concentration (Tmax), over the doses 0.5, 1, 2 and 4 mg/kg p.o.) was 1 to 8 h and the “time spent in the drug-paired compartment, postconditioning” value (C57BL/6J mice [1]; [15]) was 470.6 ± 16.5 s. For the same compound, the “time spent in the drug-paired compartment, preconditioning” value (C57BL/6J mice [1]; [15]) was 445.2 ± 18.9 s, the “morphine-induced CPP score compared with the vehicle-pretreated group” value (C57BL/6J mice [1]; 3 mg/kg p.o. before each morphine treatment, p = 0.023) was “significantly lower” and the “time spent in the drug-paired compartment, postconditioning” value (C57BL/6J mice [1]; [12]) was 392.8 ± 42.3 s. The “time spent in the drug-paired compartment, preconditioning” value (C57BL/6J mice [1]; [12]) was 434.9 ± 30.5 s, the “morphine-induced CPP score compared with the vehicle-pretreated group” value (C57BL/6J mice [1]; [13]) was “significantly lower” and the EC50 (human NOP [6]) was greater than 10000 nM. For the same compound, the IC50 (human NOP [6]) was 330 nM, the maximal inhibitory effect (human NOP [6]; against nociceptin) was greater than 95% and the “stimulation of [35S]-GTPγS binding” value (human NOP [6]; high concentration (10 µM)) was “did not stimulate”. For the same compound, the “time spent in the morphine-paired compartment, preconditioning” value (C57BL/6J mice [2]; 3 mg/kg p.o. 60 min before the postconditioning phase) was 466.8 ± 20.7 s, the “time spent in the morphine-paired compartment, postconditioning” value (C57BL/6J mice [2]; 3 mg/kg p.o. 60 min before the postconditioning phase, p = 0.012 vs pre) was 536.5 ± 24.8 s and the “time spent in the morphine-paired compartment, postconditioning” value (C57BL/6J mice [2]; [14]) was 492.4 ± 32.8 s. For the same compound, the “time spent in the morphine-paired compartment, preconditioning” value (C57BL/6J mice [2]; [14]) was 461.3 ± 20.0 s, the “morphine-induced CPP score compared with the vehicle-treated control group” value (C57BL/6J mice [2]) was “significantly decreased” and the “sedative effects (number of transitions between compartments)” value (C57BL/6J mice [2]) was “did not exert sedative effects”. The “behavioral abnormalities during the session” value (C57BL/6J mice [2]; high-dose (10 mg/kg, p.o.)) was “No other notable behavioral abnormalities”, the Ki (human NOP [7]) was 1800 nM and the Ki (human MOP [8]) was 3.1 nM. The Ki (human KOP [9]) was 460 nM, the Ki (human DOP [10]) was 1800 nM and the EC50 (human MOP [3]) was greater than 10000 nM. For the same compound, the IC50 (human MOP [3]) was 1.7 nM, the maximal inhibitory effect (human MOP [3]; against DAMGO) was greater than 95% and the “stimulation of [35S]-GTPγS binding” value (human MOP [3]; high concentration (10 µM)) was “did not stimulate”. It also gave an EC50 (human DOP [11]) greater than 10000 nM, an IC50 (human DOP [11]) of 850 nM and a maximal inhibitory effect (human DOP [11]; against DPDPE) greater than 95%. The “stimulation of [35S]-GTPγS binding” value (human DOP [11]; high concentration (10 µM)) was “did not stimulate”.
